Results reported in patent US4390526A, “Pharmaceutical agents for the treatment of sickle cell disease” (Yeda Research & Development Co. Ltd., priority 1979, dated 1983).
Where a SMILES comes first, the peptide text is derived from it.

What was measured:
erythrocytes [1] = details: literature values, Table II; cited from earlier work
[2] = test system: erythrocytes of a sickle cell disease patient; assay: Inhibition of sickling; type: cell-based, human; details: 30 minutes, deoxygenated with sodium metabisulphite
Experimental: A venous blood sample was obtained from the anticubital vein of a sickle cell disease patient and washed several times with phosphate buffer saline, pH 7.2, consisting of 145.4 mM NaCl, 4.0 mM KCl, 1.65 mM Na2 HPO4, 0.16 mM KH2 PO4, 0.01 mM MgCl2 and 11.1 mM glucose. The buffy coats were removed by aspiration. […] The mixture was well stoppered, incubated at 37° C. and swirled at about 100 cycles per minute in a controlled environment incubator. The standard control consisted of a 300 μl of a 20% cell suspension in the buffer in which the novel compound was dissolved. After an incubation period, 20 μl of the treated cell suspension was deoxygenated with 20 μl of 2.0% sodium metabisulphite or with nitrogen gas and examined with a Zeiss microscope.
[…] They were deoxygenated with sodium metabisulphite and examined under a Zeiss microscope.

erythrocytes [3] = assay: Transport of the novel compounds into erythrocytes; type: cell-based, human
Experimental: As sickle cell disease is caused by a defect of the erythrocytes, in order to study transport of a therapeutic agent for the treatment of the disease into erythrocytes, erythrocytes and no other cells must be used for the transport studies.
Washed erythrocytes were prepared by the method described in Example 2 and used for transport studies. The novel class of compounds were radioactively labelled, using for example, [^14 C]-L-Phe.

purified HbS = target: T1, purified HbS (Homo sapiens, UniProt P68871, E7V); assay: Determination of antigelling property (modified method of Bookchin et al.); type: biochemical; details: deoxygenated with sodium dithionite, 37° C.; antigelling = fluid state for more than 20 minutes
T1 construct: 150 μl of 35% of purified HbS were added and vortexed; from tissue
Experimental: The antigelling property of the said new class of compounds was determined by a modified method of Bookchin et al. (1967); (see Bookchin et al, J. Biol. Chem., 242, 248-255, 1967). To 10 μl of a solution of the said new class of compounds in a micro test tube, at about 37° C., 150 μl of 35% of purified HbS were added and vortexed. 15 microliters of a 10% sodium dithionite in 0.05 M phosphate buffer, pH 7.2 were added. The mixture was thoroughly mixed and flushed with nitrogen and quickly stoppered. The micro test tube was incubated at 37° C. for 30 minutes and then transferred to 0° C. for 10 minutes and then returned to 37° C. for 30 minutes. A compound was defined as having antigelling properties when the HbS inhibition mixture remained in the fluid state for a period of more than 20 minutes at 37° C.

| Structure (SMILES) | Effective Concentration In Vitro (antisickling) (erythrocytes [1]) [mM] | Percentage of Normal Cells ([2]; 3 mM of the compound) [%] | other results |
| --- | --- | --- | --- |
| O=CC(O)CO (racemic) [DL--Glyceraldehyde] | 20 | – | – |
| O=C(Nc1ccccn1)c1ccccc1.O=C(O)c1ccccc1 [2(Benzoyl amino) pyridinium benzoate] | 50 | – | – |
| CC1(C)CCc2cc(CCCC(=O)O)ccc2O1 [3,4-dihydro-2,2-dimethyl 2H-1 Benzopyridirium-6-butyric acid] | 10 | – | – |
| Cl.N[C@@H](Cc1ccccc1)C(=O)OCc1ccccc1 [Compound 1, L--Phe--OBz.HCl] | – | 90 | transport into erythrocytes (erythrocytes [3]): rapidly transported into erythrocytes by a carrier mediated process; Michaelis constant for transport (erythrocytes [3]; 14C-labelled compound, washed erythrocytes): 0.175 mM; PERCENT OF INCORPORATION (erythrocytes [3]; TIME 0): 0%; PERCENT OF INCORPORATION (erythrocytes [3]; TIME 10): 30%; PERCENT OF INCORPORATION (erythrocytes [3]; TIME 20): 70%; PERCENT OF INCORPORATION (erythrocytes [3]; TIME 30): 90%; PERCENT OF INCORPORATION (erythrocytes [3]; TIME 45): 100%; PERCENT OF INCORPORATION (erythrocytes [3]; TIME 60): 90%; moles of compound to one mole of HbS at which gelation of HbS is inhibited (purified HbS): 6 moles to one mole HbS |
| Cl.N[C@@H](Cc1ccc(O)cc1)C(=O)OCc1ccccc1 [Compound 2, L--Tyr--OBz.HCl] | – | – | Percentage of Normal Cells ([2]; 0.5 mM of compound): 70% |
| Cl.N[C@@H](Cc1c[nH]c2ccccc12)C(=O)OCc1ccccc1 [Compound 3, L--Try--OBz.HCl] | – | – | Percentage of Normal Cells ([2]; 0.5 mM of compound): 95%; moles of compound to one mole of HbS at which gelation of HbS is inhibited (purified HbS): 4 moles to one mole HbS |
| Cl.O=C(OCc1ccccc1)[C@@H]1CCCN1 [Compound 4, L--Pro--OBz.HCl] | – | 60 | – |
| Br.N[C@@H](Cc1ccccc1)C(=O)OCc1ccc([N+](=O)[O-])cc1 [Compound 6, L--Phe--OBz (pNO2).HBr] | – | 90 | – |
| Br.O=C(OCc1ccc([N+](=O)[O-])cc1)[C@@H]1CCCN1 [Compound 7, L--Pro--OBz (pNO2).HBr] | – | 80 | – |
| Cc1ccc(S(=O)(=O)O)cc1.NC(Cc1c[nH]cn1)C(=O)OCc1ccc([N+](=O)[O-])cc1 [Compound 8, L--His--OBz (pNO2) pTS] | – | 70 | – |
| Br.C[C@H](N)C(=O)N[C@@H](Cc1ccccc1)C(=O)OCc1ccccc1 [Compound 9, L--Ala--L--Phe--OBz.HBr] | – | 90 | – |
| Br.NCC(=O)N[C@@H](Cc1ccccc1)C(=O)OCc1ccccc1 [Compound 10, L--Gly--L--Phe--OBz.HBr] (HELM PEPTIDE1{G.F.[c1ccc(CO[*:1])cc1]}$$$$V2.0) | – | 90 | – |
| N[C@@H](Cc1ccccc1)C(=O)NCc1ccccc1 [Compound 11, L--Phe--Benzyl amide] | – | 70 | – |
| CC(C)[C@H](N)C(=O)OCc1ccccc1 [Compound 12, L--Val--OBz] | – | 50 | – |
| CC(C)C[C@H](N)C(=O)OCc1ccccc1 [Compound 13, L--Leu--OBz] | – | 55 | – |
| Br.CC(NC(=O)C(N)Cc1ccccc1)C(=O)OCc1ccccc1 [Compound 14, L--Phe--L--Ala--OBz.HBr] | – | 70 | – |
| Br.NCCCC[C@H](NC(=O)[C@@H](N)Cc1c[nH]c2ccccc12)C(=O)OCc1ccccc1 [Compound 15, L--Try--Lys--OBz.HBr] (HELM PEPTIDE1{W.K.[c1ccc(CO[*:1])cc1]}$$$$V2.0) | – | 70 | – |
| Cl.N[C@H](Cc1ccccc1)C(=O)OCc1ccccc1 [Compound 16, D--Phe--OBz.HCl] | – | 90 | moles of compound to one mole of HbS at which gelation of HbS is inhibited (purified HbS): 6 moles to one mole HbS |
| CCCCCCCCCCCCCCCCCCOC(=O)[C@@H](N)Cc1ccc(O)cc1.Cl [Compound 17, L--Tyr--O Octadecyl.HCl, reference compound] | – | 10 | – |
| N[C@@H](Cc1ccccc1)C(=O)O [Compound 18, L--Phe, reference compound] | – | 0 | – |
| NCCSSCCN [Cystamine] | 220 | – | – |
| CC(=O)Oc1c(Br)cc(Br)cc1C(=O)O [Dibromo aspirin] | 5 | – | – |
| COC(=N)CCCCC(=N)OC [Dimethyl Adipimidate] | 10 | – | – |
| N#C[O-].[K+] [Potassium Cyanate] | 100 | – | – |
| Cc1ncc(CO)c(C=O)c1O [Pyridoxal] | 20 | – | – |
| NC(N)=O [Urea] | 100 | – | – |
